Columns and labels:
Assay in all cases: relative viability (nuclei count vs DMSO), 5 days (fraction); higher = more cells survive
[1] = compound: C1=CC2=C(C=C(C(=C2N=C1)O)N=NC3=CC4=C(C=C3)C=C(C=C4)S(=O)(=O)O)S(=O)(=O)O + C[C@]1(O)C[C@@H](c2nc(-c3ccc4ccc(-c5ccccc5)nc4c3)c3c(N)nccn32)C1 [Linsitinib] (partner 1 µM)
Summary of the method: (§1)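 Relative viability equals treated-well nuclei counts divided by vehicle-well nuclei counts. Counts came from 4× images of lung cancer cell lines grown in 1536-well plates for 5 days after pin-tool dosing on the day after seeding. Dosing used one drug alone or a fixed anchor-drug dose plus five library-drug doses (not always all listed) in √10 steps, and values are medians of duplicate plates.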

[2] = compound: C1=CC2=C(C=C(C(=C2N=C1)O)N=NC3=CC4=C(C=C3)C=C(C=C4)S(=O)(=O)O)S(=O)(=O)O + Cc1nc(Nc2ncc(C(=O)Nc3c(C)cccc3Cl)s2)cc(N2CCN(CCO)CC2)n1 [Dasatinib] (partner 0.075 µM)
Summary of the method: as §1

[3] = compound: C1=CC2=C(C=C(C(=C2N=C1)O)N=NC3=CC4=C(C=C3)C=C(C=C4)S(=O)(=O)O)S(=O)(=O)O + Nc1nc2[nH]cc(CCc3ccc(C(=O)N[C@@H](CCC(=O)O)C(=O)O)cc3)c2c(=O)[nH]1 [Pemetrexed] (partner 0.2 µM)
Summary of the method: as §1

[4] = compound: O=C(NC1CCNCC1)c1n[nH]cc1NC(=O)c1c(Cl)cccc1Cl [AT-7519] + CS(=O)(=O)CCNCc1ccc(-c2ccc3ncnc(Nc4ccc(OCc5cccc(F)c5)c(Cl)c4)c3c2)o1 [Lapatinib] (partner 2 µM)
Summary of the method: as §1

| Cell Line | relative viability ([1]; first compound 0.08 µM) | relative viability ([1]; first compound 0.253 µM) | relative viability ([1]; first compound 0.8 µM) | relative viability ([1]; first compound 2.53 µM) | relative viability ([1]; first compound 8 µM) | relative viability ([2]; first compound 0.08 µM) | relative viability ([2]; first compound 0.253 µM) | relative viability ([2]; first compound 0.8 µM) | relative viability ([2]; first compound 2.53 µM) | relative viability ([2]; first compound 8 µM) | relative viability ([3]; first compound 0.08 µM) | relative viability ([3]; first compound 0.253 µM) | relative viability ([3]; first compound 0.8 µM) | relative viability ([3]; first compound 2.53 µM) | relative viability ([3]; first compound 8 µM) | relative viability ([4]; first compound 0.01 µM) | relative viability ([4]; first compound 0.03162 µM) | relative viability ([4]; first compound 0.3162 µM) | relative viability ([4]; first compound 1 µM) |
| --- | --- | --- | --- | --- | --- | --- | --- | --- | --- | --- | --- | --- | --- | --- | --- | --- | --- | --- | --- |
| NCI-H1563 | 1.35 | 1.16 | 1.29 | 1.28 | 1.21 | 0.455 | 0.478 | 0.492 | 0.397 | 0.418 | 0.776 | 0.744 | 0.726 | 0.79 | 0.376 | 0.923 | 0.971 | 1.07 | 1.01 |
| NCI-H23 | 0.625 | 0.446 | 0.63 | 0.722 | 0.578 | 0.922 | 0.877 | 0.702 | 0.95 | 0.927 | 0.681 | 0.648 | 0.669 | 0.579 | 0.693 | 0.955 | 0.975 | 0.919 | 0.218 |
| LCLC-97TM1 |  | 0.194 |  | 0.196 | 0.18 | 0.705 | 0.842 | 0.691 | 0.779 | 0.865 | 0.173 | 0.18 | 0.157 | 0.156 | 0.161 | 0.83 | 0.732 | 0.805 | 0.758 |
| EPLC-272H | 1.29 | 1.07 | 1.13 | 1.31 | 1.37 | 0.408 | 0.313 | 0.333 | 0.366 | 0.418 | 0.327 | 0.364 | 0.358 | 0.374 | 0.379 | 0.979 | 0.913 | 0.652 | 1.07 |
| NCI-H1915 | 1.06 | 1.14 | 1.13 | 1.08 | 1.14 | 0.311 | 0.321 | 0.29 | 0.316 | 0.314 | 0.523 | 0.464 | 0.473 | 0.461 | 0.446 | 1.02 | 0.987 | 0.863 | 0.8 |
| NCI-H2405 | 0.909 | 0.873 | 0.943 | 1.04 | 0.948 | 0.146 | 0.226 | 0.208 | 0.201 | 0.219 | 1.1 | 1.08 | 0.976 | 1.11 | 0.982 | 1.04 | 1.04 | 1.03 | 0.719 |
| NCI-H322M | 0.905 | 0.925 | 0.845 | 0.916 | 0.99 | 0.252 | 0.251 | 0.234 | 0.27 | 0.274 | 0.663 | 0.663 | 0.608 | 0.587 | 0.669 | 0.648 | 0.606 | 0.525 | 0.67 |
| NCI-H1395 | 1.11 | 1.18 | 1.34 | 1 | 1.18 | 0.386 | 0.433 | 0.45 | 0.397 | 0.43 | 0.814 | 0.816 | 0.68 | 0.763 | 0.782 | 1.03 | 1.14 | 0.802 | 0.602 |
| NCI-H358 | 0.796 | 0.682 | 0.724 | 0.74 | 0.336 | 0.149 | 0.183 | 0.153 | 0.184 | 0.168 | 0.159 | 0.16 | 0.162 | 0.163 | 0.171 | 0.406 | 0.447 | 0.335 | 0.198 |
| NCI-H838 | 1.17 | 0.996 | 0.979 | 0.975 | 1.02 | 0.292 | 0.25 | 0.283 | 0.3 | 0.29 | 0.264 | 0.251 | 0.235 | 0.234 | 0.246 | 1.05 | 0.815 | 0.124 | 0.0875 |
| CAL-12T | 0.938 | 0.753 | 0.751 | 0.773 | 0.889 | 0.325 | 0.361 | 0.383 | 0.518 | 0.434 | 1.25 | 1.18 | 1.14 | 1.18 | 1.13 |  | 0.538 | 0.386 | 0.186 |
